From patent US9926297B2, “Bicyclic AZA compounds as muscarinic M1 receptor and/or M4 receptor agonists” (Heptares Therapeutics Limited, priority 2014, dated 2018)

Key:
[1] = target: T1, human muscarinic M1 receptor (Homo sapiens, UniProt P11229); test: Alphascreen Surefire phospho-ERK1/2 functional assay, M1; assay type: cell-based; details: for EC50 / % Emax cf. ACh, M1: CHO cells stably expressing human M1; for EC50: phospho-ERK1/2, * = variable results, read-out: pEC50 M1 (converted); for Emax: CHO, read-out: % Emax cf. ACh, M1, CHO cells stably expressing human M1; for Emax / % Emax cf. ACh, M1: relative to ACh
T1 sequence (P11229 1-460): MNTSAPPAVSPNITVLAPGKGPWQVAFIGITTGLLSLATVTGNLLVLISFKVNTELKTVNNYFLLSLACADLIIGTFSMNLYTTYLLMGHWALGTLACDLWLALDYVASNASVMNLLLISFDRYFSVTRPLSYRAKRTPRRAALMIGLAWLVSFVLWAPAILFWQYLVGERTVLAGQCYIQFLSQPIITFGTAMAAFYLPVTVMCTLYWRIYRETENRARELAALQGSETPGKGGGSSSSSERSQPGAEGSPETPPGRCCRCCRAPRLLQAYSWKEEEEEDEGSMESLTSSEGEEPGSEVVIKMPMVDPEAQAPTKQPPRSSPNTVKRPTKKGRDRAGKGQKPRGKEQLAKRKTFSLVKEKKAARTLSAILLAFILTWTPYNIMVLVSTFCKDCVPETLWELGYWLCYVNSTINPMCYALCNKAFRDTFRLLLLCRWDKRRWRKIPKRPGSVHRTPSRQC

[2] = target: T2, human muscarinic M4 receptor (Homo sapiens, UniProt P08173); test: Alphascreen Surefire phospho-ERK1/2 functional assay, M4; assay type: cell-based; details: for EC50: phospho-ERK1/2, * = variable results, read-out: pEC50 M4 (converted); for Emax: CHO, read-out: % Emax cf. ACh, M4, CHO cells stably expressing human M4; for selectivity for the M4 receptor relative to the M1 receptor: functional assay of Example A
T2 construct: expressed in transfected cells
T2 sequence (P08173 1-479): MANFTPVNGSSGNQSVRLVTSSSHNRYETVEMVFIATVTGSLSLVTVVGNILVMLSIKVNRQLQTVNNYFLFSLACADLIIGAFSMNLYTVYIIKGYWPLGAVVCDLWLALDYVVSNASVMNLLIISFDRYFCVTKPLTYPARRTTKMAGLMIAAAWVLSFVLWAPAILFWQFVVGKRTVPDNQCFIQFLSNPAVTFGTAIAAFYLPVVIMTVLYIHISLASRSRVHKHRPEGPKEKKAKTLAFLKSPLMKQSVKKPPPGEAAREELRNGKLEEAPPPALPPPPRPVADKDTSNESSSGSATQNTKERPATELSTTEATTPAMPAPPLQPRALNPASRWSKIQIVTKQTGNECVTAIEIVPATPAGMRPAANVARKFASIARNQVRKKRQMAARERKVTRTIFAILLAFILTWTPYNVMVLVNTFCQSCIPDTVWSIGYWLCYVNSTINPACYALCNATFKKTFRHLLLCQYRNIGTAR

[3] = CHO cells stably expressing human M4

EC50 [1] [nM]	Emax [1] [%]	EC50 [2, 3] [nM]	Emax ([2]; relative to ACh) [%]	% Emax cf. ACh, M1 [1] [%]	% Emax cf. ACh, M4 ([2]; CHO cells stably expressing human M4, relative to ACh) [%]	Structure (SMILES)	selectivity for the M4 receptor relative to the M1 receptor [2]
1580	61	398	86			COC(=O)N1CCC2(CC(N3CCC(c4ncc(Cl)n4C)CC3)C2)C1 (single isomer, unassigned) [1-13 Isomer 2, methyl 2-[4-(5-chloro-1-methyl-1H-imidazol-2-yl)piperidin-1-yl]-6-azaspiro[3.4]octane-6-carboxylate]	
316	82	39.8	88			CCOC(=O)N1CCC2(CC(N3CCC(c4c(CC)cnn4C)CC3)C2)C1 (single isomer, unassigned) [1-60 Isomer 2, ethyl 2-[4-(4-ethyl-1-methyl-1H-pyrazol-5-yl)piperidin-1-yl]-6-azaspiro[3.4]octane-6-carboxylate]	
126	100	15.8	113			CCOC(=O)N1CCC2(CC(N3CCC(N4C(=O)CC[C@H]4C)CC3)C2)C1 (single isomer, unassigned) [2-113 Isomer 2]	
10000	89	1580	104			CCOC(=O)N1CCC2(CC(N3CCC(N4CCCC4c4nnn[nH]4)CC3)C2)C1 (single isomer, unassigned) [2-128 Isomer 2, ethyl 2-{4-[2-(1H-tetrazol-5-yl)pyrrolidin-1-yl]piperidin-1-yl}-6-azaspiro[3.4]octane-6-carboxylate]	
> 20000	7	316	31			CCOC(=O)N1CCC2(CC(N3CCC(C4CCCN4C)CC3)C2)C1 (single isomer, unassigned) [2-22 Isomer 2, ethyl 2-[4-(1-methylpyrrolidin-2-yl)piperidin-1-yl]-6-azaspiro[3.4]octane-6-carboxylate]	
> 20000	57	794	48			COC(=O)N1CCC2(CC(N3CCC(c4ncc(C)n4C)CC3)C2)C1 (single isomer, unassigned) [1-9 Isomer 2, methyl 2-[4-(1,5-dimethyl-1H-imidazol-2-yl)piperidin-1-yl]-6-azaspiro[3.4]octane-6-carboxylate]	
> 20000		158	67	15		CCOC(=O)N1CCC2(CC(N3CCC([C@@H]4CCCN4C(=O)N(C)CC(F)(F)F)CC3)C2)C1 (single isomer, unassigned) [2-55 Isomer 1]	
> 20000	15	12.6	90			CCOC(=O)N1CCC2(CC(N3CCC(N4C[C@@H](F)C[C@@H]4C(=O)OC)CC3)C2)C1 (single isomer, unassigned) [2-135 Isomer 2]	
> 20000		10		37	70	CCOC(=O)N1CCC2(CC(N3CCC([C@@H]4CCCN4C(=O)N4Cc5cccnc5C4)CC3)C2)C1 (single isomer, unassigned) [2-133 Isomer 1]	
> 20000	7	6760	80			CCOC(=O)N1CCC2(CC(N3CCC(N4CC(F)(F)C[C@H]4C(=O)N(C)C)CC3)C2)C1 (single isomer, unassigned) [2-94 Isomer 2]	
10000	70	631	98			CCOC(=O)N1CCC2(CC(N3CCC(N4CCC[C@H]4C(F)(F)F)CC3)C2)C1 (single isomer, unassigned) [2-101 Isomer 2]	
200	68	25.1	78			CCOC(=O)N1CCC2(CC(N3CCC(N4C(=O)CC[C@@H]4C)CC3)C2)C1 (single isomer, unassigned) [2-115 Isomer 2]	
						CCOC(=O)N1CCC2(CC(N3CCC([C@@H]4CCCN4C(=O)NC)CC3)C2)C1 (stereo partly drawn) [Example 2-17, ethyl 2-{4-[(2S)-1-(methylcarbamoyl)pyrrolidin-2-yl]piperidin-1-yl}-6-azaspiro[3.4]octane-6-carboxylate]	highly selective for the M4 receptor relative to the M1 receptor
5010	73	251	47			CCOC(=O)N1CCC2(CC(N3CCC(n4cncn4)CC3)C2)C1 (single isomer, unassigned) [1-36 Isomer 2, ethyl 2-[4-(1H-1,2,4-triazol-1-yl)piperidin-1-yl]-6-azaspiro[3.4]octane-6-carboxylate]	
> 20000	26	200	38			CCOC(=O)N1CCC2(CC(N3CCC(N4CC5CC5C4)CC3)C2)C1 (single isomer, unassigned) [2-105 Isomer 2, ethyl 2-[4-(3-azabicyclo[3.1.0]hex-3-yl)piperidin-1-yl]-6-azaspiro[3.4]octane-6-carboxylate]	
3980	55	10	100			CCOC(=O)N1CCC2(CC(N3CCC([C@@H]4CCCN4c4nncs4)CC3)C2)C1 (single isomer, unassigned) [2-83 Isomer 2]	
794	83	7940	48			CCOC(=O)N1CCC2(CC(N3CCC(c4cc(N)n[nH]4)CC3)C2)C1 (single isomer, unassigned) [1-19 Isomer 2, ethyl 2-[4-(3-amino-1H-pyrazol-5-yl)piperidin-1-yl]-6-azaspiro[3.4]octane-6-carboxylate]	
> 20000	62	1000	56			COC(=O)N1CCC2(CC(N3CCC(c4ccnn4C)CC3)C2)C1 (mixture of isomers) [1-20 Mixture of diastereomers, methyl 2-[4-(1-methyl-1H-pyrazol-5-yl)piperidin-1-yl]-6-azaspiro[3.4]octane-6-carboxylate]	
> 20000	10	501	40			CCOC(=O)N1CCC2(CC(N3CCC([C@@H]4CCCN4CC)CC3)C2)C1 (single isomer, unassigned) [2-61 Isomer 2]	
> 20000	7	251	31			CCOC(=O)N1CCC2(CC(N3CCC(N4CCCCC4)CC3)C2)C1 (single isomer, unassigned) [4-10 Isomer 2, ethyl 2-(1,4′-bipiperidin-1′-yl)-6-azaspiro[3.4]octane-6-carboxylate]	
> 20000	12	100	55			CCOC(=O)N1CCC2(CC(N3CCC(N4CCCC4c4nnn(C)n4)CC3)C2)C1 (single isomer, unassigned) [2-129 Isomer 2, ethyl 2-{4-[2-(2-methyl-2H-tetrazol-5-yl)pyrrolidin-1-yl]piperidin-1-yl}-6-azaspiro[3.4]octane-6-carboxylate]	
39.8	36	25.1	58			CCOC(=O)N1CCC2(CC(N3CCC(c4c(C)ccnc4OC)CC3)C2)C1 (single isomer, unassigned) [3-11 Isomer 2, ethyl 2-[4-(2-methoxy-4-methylpyridin-3-yl)piperidin-1-yl]-6-azaspiro[3.4]octane-6-carboxylate]	
63.1	109	6.31	103			CCOC(=O)N1CCC2(CC(N3CCC(N4C(=O)CC[C@@H]4CC)CC3)C2)C1 (single isomer, unassigned) [2-116 Isomer 2]	
						COC(=O)N1CCC2(CC(N3CCC(c4ncc(C)n4C)CC3)C2)C1 (centres unmarked) [Example 1-9, methyl 2-[4-(1,5-dimethyl-1H-imidazol-2-yl)piperidin-1-yl]-6-azaspiro[3.4]octane-6-carboxylate]	highly selective for the M4 receptor relative to the M1 receptor
						COC(=O)N1CCC2(CC(N3CCC(c4nccn4C)CC3)C2)C1 (centres unmarked) [Example 1-6, methyl 2-[4-(1-methyl-1H-imidazol-2-yl)piperidin-1-yl]-6-azaspiro[3.4]octane-6-carboxylate]	highly selective for the M4 receptor relative to the M1 receptor
						CCOC(=O)N1CCC2(CC(N3CCC(c4ccnn4C)CC3)C2)C1 (centres unmarked) [Example 1-21, ethyl 2-[4-(1-methyl-1H-pyrazol-5-yl)piperidin-1-yl]-6-azaspiro[3.4]octane-6-carboxylate]	highly selective for the M4 receptor relative to the M1 receptor
